The structures appear in SMILES notation.

This data set is described as follows: solvent given as SMILES.

On to `Cc1ccc(Nc2ccc(Nc3ccc(C)cc3)c3c2C(=O)c2ccccc2C3=O)cc1`, for which the emission maximum is, setting by setting: (in C1CCCCC1) 680 nm; (in C1COCCO1) 684 nm; (in CC(C)=O) 684 nm; (in CCCCCCCCCCO) 682 nm; (in CCCCCCCO) 684 nm; (in CCCCCCO) 682 nm. Moreover, the emission maximum (in CCCCO) is on record as 683 nm; the emission maximum (in CCO) is on record as 684 nm; the emission maximum (in CN(C)C=O) came out at 686 nm; the emission maximum (in CO) came out at 682 nm; the emission maximum (in CS(C)=O) was determined as 689 nm; the emission maximum (in ClC(Cl)(Cl)Cl) turned out to be 685 nm. Besides, the emission maximum (in c1ccccc1) is on record as 684 nm.
For the setting “in ClC(Cl)Cl”, `O=c1oc2ccccc2cc1-c1cn2ccccc2n1` displayed an emission maximum of 456 nm.
Where the note is “in Cc1ccccc1”, `N#CC=C(c1ccc(N2c3ccccc3Oc3ccccc32)cc1)c1ccc(N2c3ccccc3Oc3ccccc32)cc1` came in with an emission maximum of 574 nm.
Consider `C[Si](C)(C)c1ccc2ccc3c([Si](C)(C)C)ccc4ccc1c2c43`, for which the emission maximum is, setting by setting: (in CCCCCC) 380 nm; (in CO) 380 nm; (in ClCCl) 381 nm.
As to `CC1(C)c2ccccc2N(c2ccc(-c3nc(C#N)c(C#N)nc3-c3ccc(N4c5ccccc5C(C)(C)c5ccccc54)cc3)cc2)c2ccccc21`, the emission maximum stood at 620 nm (in Cc1ccccc1) and 570 nm (in c1cc(-c2cccc(-n3c4ccccc4c4ccccc43)c2)cc(-n2c3ccccc3c3ccccc32)c1).
`CCOC(=O)CSc1nc(C)c(CC)c(C#N)c1C#N`: the emission maximum (in c1ccccc1) was 407 nm.
With `CC1=N/C(=C\c2cc(C#N)cc(N(C)C)c2)C(=O)N1C`, the emission maximum runs as follows: (in C1CCOC1) 544 nm; (in CC#N) 595 nm; (in CCCCCC) 475 nm.
Under “in ClCCl”, `N#Cc1ccc(-c2cnc3cccc(-c4ccccc4)n23)cc1` returned an emission maximum of 457 nm.
Consider `CCCCCCCCc1ccc(-n2c3c(c4c2c2c(n4-c4ccc(CCCCCCCC)cc4)-c4ccccc4NB2c2ccccc2)B(c2ccccc2)Nc2ccccc2-3)cc1`, for which the emission maximum (in Cc1ccccc1) turned out to be 400 nm.
Under “in ClCCl”, `O=[N+]([O-])c1ccc(C#Cc2ccc3ccc(C#Cc4ccc([N+](=O)[O-])cc4)cc3c2)cc1` returned an emission maximum of 527 nm.
Regarding `C=CC1CN2CCC1CC2[C@@H](OCc1ccccc1)c1ccnc2ccc(O)cc12` (some centres undefined), the emission maximum stood at 358 nm (in C1CCOC1); 362 nm (in CC#N); 361 nm (in CCCC#N); 355 nm (in Cc1ccccc1); 363 nm (in ClCCl).
As to `O=C1/C(=C2\Sc3ccc(S(=O)(=O)O)cc3C2=O)Sc2ccc(S(=O)(=O)O)cc21`, the emission maximum is on record as 587 nm (in C1COCCO1); 613 nm (in CN(C)C=O); 629 nm (in CO); 629 nm (in CS(C)=O); 644 nm (in O).
Regarding `CN(C)c1ccc(/C=C/c2ncnc3ccccc23)cc1`, the emission maximum was found to be 465 nm (in C1CCCCC1); 537 nm (in C1CCOC1); 572 nm (in CC#N); 585 nm (in CS(C)=O); 548 nm (in ClCCl).
For the molecule `F[B-]1(F)n2cccc2C(c2ccccc2)=C2C=CC(c3ccc(OC4=[N+]5C(=C(c6ccccc6)c6cc(Br)c(Br)n6[B-]5(F)F)C=C4Br)cc3)=[N+]21`, the emission maximum (in ClC(Cl)Cl) stood at 574 nm.
As for `CC1=CC(C)=[N+]2C1=Cc1c3ccccc3c(C#Cc3cccs3)n1[B-]2(F)F`, the emission maximum was 628 nm (in CCCCCC); 636 nm (in CCCCCCCCO); 632 nm (in CCOC(C)=O); 639 nm (in CN(C)C=O); 631 nm (in ClCCl).
Turning to `CN(C)c1ccc(/C=C/C=C/c2nc3ccccc3o2)cc1`, the emission maximum reads like this: (in C1COCCO1) 508 nm; (in CC#N) 535 nm; (in CC(C)=O) 531 nm; (in CCCCCC) 474 nm; (in CCCCO) 525 nm; (in CCCO) 526 nm. Further, the emission maximum is, setting by setting: (in CCO) 531 nm; (in CN(C)C=O) 538 nm; (in CO) 539 nm; (in Cc1ccccc1) 496 nm; (in ClC(Cl)(Cl)Cl) 491 nm; (in ClC(Cl)Cl) 517 nm. Besides, the emission maximum turned out to be 525 nm (in ClCCl), 566 nm (in OCC(O)CO), 562 nm (in OCCO) and 503 nm (in c1ccccc1).
Where the note is “in ClC(Cl)Cl”, `CCCCN1c2ccccc2Sc2cc(/C=C\c3cc(=O)oc4ccc(C)cc34)ccc21` gave an emission maximum of 635 nm.
Turning to `CN(C)c1ccc(-c2cc3ccc([N+](=O)[O-])cc3c(=O)o2)cc1`, the emission maximum amounted to 682 nm (in CC(C)=O); 559 nm (in CCCCO); 621 nm (in CCOC(C)=O); 605 nm (in CN(C)C=O); 605 nm (in CO); 652 nm (in ClC(Cl)Cl).
`CN(C)c1ccc(C2=Nc3scc[n+]3[B-](F)(F)O2)cc1`: the emission maximum was determined as 454 nm (in C1CCOC1), 469 nm (in CC#N), 439 nm (in Cc1ccccc1) and 453 nm (in ClCCl).
Consider `C[n+]1ccc(/C=C/c2ccc(N(c3ccccc3)c3ccc(/C=C/c4cc[n+](C)cn4)cc3)cc2)nc1`, for which the emission maximum was 720 nm (in CS(C)=O) and 685 nm (in OCC(O)CO).
The molecule `CC(=O)c1c(N[C@@H](Cc2ccc(O)cc2)C(=O)O)c2ccc(N(C)C)cc2oc1=O` had an emission maximum (in ClCCl) of 415 nm.
As to `COc1ccc(C#Cc2c3ccccc3c3n2[B-](F)(F)[N+]2=C(C)C=C(C)C2=C3)cc1`, the emission maximum is on record as 620 nm (in CCCCCC); 629 nm (in CCCCCCCCO); 623 nm (in CCOC(C)=O); 630 nm (in CN(C)C=O); 633 nm (in ClCCl).
`CCCCOc1cc(C=C2c3ccccc3-c3ccccc32)c(OCCCC)cc1C=C1c2ccccc2C=Cc2ccccc21` showed an emission maximum (in C1CCOC1) of 472 nm.
Consider `CC1=[N+]2C(=C(/C=C/c3ccc(C(F)(F)F)cc3)c3ccc(C)n3[B-]2(F)F)C=C1c1cc2n(c1)[B-](F)(F)[N+]1=CC=CC1=C2c1c(C)cc(C)cc1C`, for which the emission maximum worked out at 704 nm (in C1CCCCC1) and 710 nm (in CCOC(C)=O).
Molecule `Cc1ccc(CN(Cc2ccc(C)cc2)c2nc(C#N)c(N(Cc3ccc(C)cc3)Cc3ccc(C)cc3)nc2C#N)cc1` had an emission maximum (in ClC(Cl)Cl) of 592 nm.
Regarding `c1csc(-c2c3ccc(=[N+]4CCCCC4)cc-3oc3cc(N4CCCCC4)ccc23)c1`, the emission maximum (in CCO) is reported as 606 nm and the emission maximum (in ClCCl) was found to be 603 nm.
Regarding `CCCCC(CC)Cn1c2cc(C#N)ccc2c2ccc(C#Cc3ccc4ccc5c(C#Cc6ccc7c8ccc(C#N)cc8n(CC(CC)CCCC)c7c6)cc(C#Cc6ccc7c8ccc(C#N)cc8n(CC(CC)CCCC)c7c6)c6ccc3c4c56)cc21` (centres undefined), the emission maximum (in ClCCl) came to 458 nm.
Take `F[B-]1(F)OC(c2ccc3ccccc3c2)=CC(c2ccc3ccccc3c2)=[O+]1`: the emission maximum (in CC#N) worked out at 510 nm and the emission maximum (in ClC(Cl)(Cl)Cl) stood at 428 nm.
Where the note is “in CO”, `c1ccc(C2CSC(c3c4ccc(=[N+]5CCCCC5)cc-4oc4cc(N5CCCCC5)ccc34)SC2)cc1` (centres undefined) yielded an emission maximum of 606.35 nm.
Consider `Cc1ccc(O)c(-c2[nH]c(=O)n3c2-c2ccccc2C3=O)c1`, for which the emission maximum reads like this: (in CC#N) 480 nm; (in CO) 500 nm; (in ClCCl) 475 nm.
For the molecule `CCN(CC)c1ccc2c(c1)oc(=O)c1cc3cnn(-c4ccccc4)c3nc12`, where the note is “in ClCCl”, the emission maximum was 501 nm.
On to `CCC(CC)COC1=CC2=C3c4cc(OCC(CC)CC)c(-c5cccs5)n4[B-](F)(F)[n+]4c3n(c3cc(C(C)(C)C)ccc34)[B-](F)(F)[N+]2=C1c1cccs1`, for which the emission maximum by setting is: (in C1CCOC1) 809 nm; (in ClCCl) 811 nm.
Turning to `CCOC(=O)c1c2c3c(ccc(F)c3c3cc4ccccc4cc13)N(C)C2=O`, for the setting “in CC#N”, the emission maximum is recorded as 415 nm.
For `CCCCCCCN1C(=CC2=C([O-])C(=Cc3sc4ccccc4[n+]3CCCCCCC)C2=C(C#N)C#N)Sc2ccccc21`, the emission maximum reads like this: (in C1COCCO1) 723 nm; (in CCO) 711 nm; (in CN(C)C=O) 717 nm; (in ClC(Cl)Cl) 724 nm.
Molecule `c1ccc2c(c1)nc1ccccn12` displayed an emission maximum (in CC#N) of 414 nm.
As to `Nc1nc(/C=C/c2ccc(N(c3ccccc3)c3ccccc3)cc2)cc(/C=C/c2ccc(N(c3ccccc3)c3ccccc3)cc2)n1`, the emission maximum reads like this: (in Cc1ccccc1) 467 nm; (in ClC(Cl)Cl) 526 nm.
`C[N+]1=C(/C=C/C=C2/N(CCCS(=O)(=O)[O-])c3ccccc3C2(C)C)C(C)(C)c2ccccc21` had an emission maximum (in CS(C)=O) of 565 nm.
The molecule `N[C@@H](Cn1nnc2cc(-c3ccc4ccccc4c3)ccc21)C(=O)O` returned an emission maximum (in CO) of 417 nm.
`Cc1ccc(-c2c3nc(c(-c4ccc(C)cc4)c4ccc([nH]4)c(-c4ccc(OC(=O)C(C)c5cccc(C(=O)c6ccccc6)c5)cc4)c4nc(c(-c5ccc(C)cc5)c5ccc2[nH]5)C=C4)C=C3)cc1` (centres undefined) yielded an emission maximum (in ClCCl) of 652 nm.
Still for that read-out and setting: the value for `CCC(C)Nc1c2ccc(=[N+]3CCCCC3)cc-2oc2cc(N3CCCCC3)ccc12` (centres undefined) was 537 nm.
For the molecule `COc1cc(OC)c2c(c1)C(=O)c1ccc(OC)cc1-2`, the emission maximum reads like this: (in C1CCCCC1) 537 nm; (in CC#N) 578 nm.
Regarding `N#CSC1=CC2=C(c3ccccc3)c3ccc(SC#N)n3[B-](F)(F)[N+]2=C1N1CCOCC1`, the emission maximum runs as follows: (in CC#N) 585 nm; (in CCCCCC) 588 nm; (in CCOC(C)=O) 589 nm; (in CO) 583 nm; (in ClCCl) 594 nm.
The molecule `CCCCCc1c(C(=O)c2ccc3c4c(cccc24)-c2cccc4c2C3CC=C4)c2ccc3cccc4c5cccc6ccc1c(c65)c2c34` (centres undefined) yielded an emission maximum (in ClCCl) of 525 nm.

The record behind these values is the Deep4Chem optical property database.
